# Columns and labels:
# MLCK = target: T1, MLCK (Homo sapiens, UniProt Q9H1R3); experiment: Millipore kinase panel; format: biochemical; settings: read-out: % Control
# T1 construct: purchased Millipore KinaseProfiler (kinases); Cerep (receptors and ion channels)
# SRPK2 = target: T2, SRPK2 (Homo sapiens, UniProt P78362); experiment: Millipore kinase panel; format: biochemical; settings: read-out: % Control
# T2 construct: purchased Millipore KinaseProfiler (kinases); Cerep (receptors and ion channels)
# RSK4 = target: T3, RSK4 (Homo sapiens, UniProt Q9UK32); experiment: Millipore kinase panel; format: biochemical; settings: read-out: % Control
# T3 construct: purchased Millipore KinaseProfiler (kinases); Cerep (receptors and ion channels)
# EPHA8 = target: T4, EPHA8 (Homo sapiens, UniProt P29322); experiment: Millipore kinase panel; format: biochemical; settings: read-out: % Control
# T4 construct: purchased Millipore KinaseProfiler (kinases); Cerep (receptors and ion channels)
# H2 (h) = target: T5, H2 (h) (Homo sapiens, UniProt P25021); experiment: CEREP binding panel; settings: antagonist radioligand, read-out: % Inhibition of Control Specific Binding
# T5 construct: purchased Millipore KinaseProfiler (kinases); Cerep (receptors and ion channels)
# WNK2 = target: T6, WNK2 (Homo sapiens, UniProt Q9Y3S1); experiment: Millipore kinase panel; format: biochemical; settings: read-out: % Control
# T6 construct: purchased Millipore KinaseProfiler (kinases); Cerep (receptors and ion channels)
# RSE = target: T7, RSE (Homo sapiens, UniProt Q06418); experiment: Millipore kinase panel; format: biochemical; settings: read-out: % Control
# T7 construct: purchased Millipore KinaseProfiler (kinases); Cerep (receptors and ion channels)
# EGFR = target: T8, EGFR (Homo sapiens, UniProt P00533); experiment: Millipore kinase panel; format: biochemical; settings: read-out: % Control
# T8 construct: purchased Millipore KinaseProfiler (kinases); Cerep (receptors and ion channels)
# FER = target: T9, FER (Homo sapiens, UniProt P16591); experiment: Millipore kinase panel; format: biochemical; settings: read-out: % Control
# T9 construct: purchased Millipore KinaseProfiler (kinases); Cerep (receptors and ion channels)
# SAPK2A = target: T10, SAPK2A (Homo sapiens, UniProt Q16539); experiment: Millipore kinase panel; format: biochemical; settings: read-out: % Control
# T10 construct: purchased Millipore KinaseProfiler (kinases); Cerep (receptors and ion channels)
# DMPK = target: T11, DMPK (Homo sapiens, UniProt Q09013); experiment: Millipore kinase panel; format: biochemical; settings: read-out: % Control
# T11 construct: purchased Millipore KinaseProfiler (kinases); Cerep (receptors and ion channels)
# ALK = target: T12, ALK (Homo sapiens, UniProt Q9UM73); experiment: Millipore kinase panel; format: biochemical; settings: read-out: % Control
# T12 construct: purchased Millipore KinaseProfiler (kinases); Cerep (receptors and ion channels)
# AXL = target: T13, AXL (Homo sapiens, UniProt P30530); experiment: Millipore kinase panel; format: biochemical; settings: read-out: % Control
# T13 construct: purchased Millipore KinaseProfiler (kinases); Cerep (receptors and ion channels)
# CDK2/CYCLINA = target: T14, CDK2/CYCLINA (Homo sapiens, UniProt P24941); experiment: Millipore kinase panel; format: biochemical; settings: read-out: % Control
# T14 construct: purchased Millipore KinaseProfiler (kinases); Cerep (receptors and ion channels)
# PDK1 = target: T15, PDK1 (Homo sapiens, UniProt O15530); experiment: Millipore kinase panel; format: biochemical; settings: read-out: % Control
# T15 construct: purchased Millipore KinaseProfiler (kinases); Cerep (receptors and ion channels)
# KDR = target: T16, KDR (Homo sapiens, UniProt P35968); experiment: Millipore kinase panel; format: biochemical; settings: read-out: % Control
# T16 construct: purchased Millipore KinaseProfiler (kinases); Cerep (receptors and ion channels)
# PLK3 = target: T17, PLK3 (Homo sapiens, UniProt Q9H4B4); experiment: Millipore kinase panel; format: biochemical; settings: read-out: % Control
# T17 construct: purchased Millipore KinaseProfiler (kinases); Cerep (receptors and ion channels)
# FES = target: T18, FES (Homo sapiens, UniProt P07332); experiment: Millipore kinase panel; format: biochemical; settings: read-out: % Control
# T18 construct: purchased Millipore KinaseProfiler (kinases); Cerep (receptors and ion channels)
# ARK5 = target: T19, ARK5 (Homo sapiens, UniProt O60285); experiment: Millipore kinase panel; format: biochemical; settings: read-out: % Control
# T19 construct: purchased Millipore KinaseProfiler (kinases); Cerep (receptors and ion channels)
# MST3 = target: T20, MST3 (Homo sapiens, UniProt Q9Y6E0); experiment: Millipore kinase panel; format: biochemical; settings: read-out: % Control
# T20 construct: purchased Millipore KinaseProfiler (kinases); Cerep (receptors and ion channels)
# FGFR3 = target: T21, FGFR3 (Homo sapiens, UniProt P22607); experiment: Millipore kinase panel; format: biochemical; settings: read-out: % Control
# T21 construct: purchased Millipore KinaseProfiler (kinases); Cerep (receptors and ion channels)
# A2A (h) = target: T22, A2A (h) (Homo sapiens, UniProt P29274); experiment: CEREP binding panel; settings: agonist radioligand, read-out: % Inhibition of Control Specific Binding
# T22 construct: purchased Millipore KinaseProfiler (kinases); Cerep (receptors and ion channels)
# 5-HT6 (h) = target: T23, 5-HT6 (h) (Homo sapiens, UniProt P50406); experiment: CEREP binding panel; settings: agonist radioligand, read-out: % Inhibition of Control Specific Binding
# T23 construct: purchased Millipore KinaseProfiler (kinases); Cerep (receptors and ion channels)
# Na+ channel (site 2) = experiment: CEREP binding panel; settings: 10 μM, antagonist radioligand
# PAK2 = target: T24, PAK2 (Homo sapiens, UniProt Q13177); experiment: Millipore kinase panel; format: biochemical; settings: read-out: % Control
# T24 construct: purchased Millipore KinaseProfiler (kinases); Cerep (receptors and ion channels)
# CLK2 = target: T25, CLK2 (Homo sapiens, UniProt P49760); experiment: Millipore kinase panel; format: biochemical; settings: read-out: % Control
# T25 construct: purchased Millipore KinaseProfiler (kinases); Cerep (receptors and ion channels)
# LCK = target: T26, LCK (Homo sapiens, UniProt P06239); experiment: Millipore kinase panel; format: biochemical
# T26 construct: purchased Millipore
# SGK = target: T27, SGK (Homo sapiens, UniProt O00141); experiment: Millipore kinase panel; format: biochemical; settings: read-out: % Control
# T27 construct: purchased Millipore KinaseProfiler (kinases); Cerep (receptors and ion channels)
# HIPK1 = target: T28, HIPK1 (Homo sapiens, UniProt Q86Z02); experiment: Millipore kinase panel; format: biochemical; settings: read-out: % Control
# T28 construct: purchased Millipore KinaseProfiler (kinases); Cerep (receptors and ion channels)
# AURKB = target: T29, AURKB (Homo sapiens, UniProt Q96GD4); experiment: Millipore kinase panel; format: biochemical; settings: read-out: % Control
# T29 construct: purchased Millipore KinaseProfiler (kinases); Cerep (receptors and ion channels)
# MKK4 = experiment: Millipore kinase panel; format: biochemical; settings: 1 μM, ATP at Km
# PRK2 = target: T30, PRK2 (Homo sapiens, UniProt Q16513); experiment: Millipore kinase panel; format: biochemical; settings: read-out: % Control
# T30 construct: purchased Millipore KinaseProfiler (kinases); Cerep (receptors and ion channels)
# A3 (h) = target: T31, A3 (h) (Homo sapiens, UniProt P0DMS8); experiment: CEREP binding panel; settings: agonist radioligand, read-out: % Inhibition of Control Specific Binding
# T31 construct: purchased Millipore KinaseProfiler (kinases); Cerep (receptors and ion channels)
# SAPK2B = target: T32, SAPK2B (Homo sapiens, UniProt Q15759); experiment: Millipore kinase panel; format: biochemical; settings: read-out: % Control
# T32 construct: purchased Millipore KinaseProfiler (kinases); Cerep (receptors and ion channels)
# ROCK-I = target: T33, ROCK-I (Homo sapiens, UniProt Q13464); experiment: Millipore kinase panel; format: biochemical; settings: read-out: % Control
# T33 construct: purchased Millipore KinaseProfiler (kinases); Cerep (receptors and ion channels)
# LIMK1 = target: T34, LIMK1 (Homo sapiens, UniProt P53667); experiment: Millipore kinase panel; format: biochemical; settings: read-out: % Control
# T34 construct: purchased Millipore KinaseProfiler (kinases); Cerep (receptors and ion channels)
# TXK = target: T35, TXK (Homo sapiens, UniProt P42681); experiment: Millipore kinase panel; format: biochemical; settings: read-out: % Control
# T35 construct: purchased Millipore KinaseProfiler (kinases); Cerep (receptors and ion channels)
# MSK1 = target: T36, MSK1 (Homo sapiens, UniProt O75582); experiment: Millipore kinase panel; format: biochemical; settings: read-out: % Control
# T36 construct: purchased Millipore KinaseProfiler (kinases); Cerep (receptors and ion channels)
# CXCR2 (IL-8B) (h) = target: T37, CXCR2 (IL-8B) (h) (Homo sapiens, UniProt P25025); experiment: CEREP binding panel; settings: agonist radioligand, read-out: % Inhibition of Control Specific Binding
# T37 construct: purchased Millipore KinaseProfiler (kinases); Cerep (receptors and ion channels)
# MEK1 = target: T38, MEK1 (Homo sapiens, UniProt Q02750); experiment: Millipore kinase panel; format: biochemical; settings: read-out: % Control
# T38 construct: purchased Millipore KinaseProfiler (kinases); Cerep (receptors and ion channels)
# EPHB4 = target: T39, EPHB4 (Homo sapiens, UniProt P54760); experiment: Millipore kinase panel; format: biochemical; settings: read-out: % Control
# T39 construct: purchased Millipore KinaseProfiler (kinases); Cerep (receptors and ion channels)
# GRK6 = target: T40, GRK6 (Homo sapiens, UniProt P43250); experiment: Millipore kinase panel; format: biochemical; settings: read-out: % Control
# T40 construct: purchased Millipore KinaseProfiler (kinases); Cerep (receptors and ion channels)
# PKD2 = target: T41, PKD2 (Homo sapiens, UniProt Q9BZL6); experiment: Millipore kinase panel; format: biochemical; settings: read-out: % Control
# T41 construct: purchased Millipore KinaseProfiler (kinases); Cerep (receptors and ion channels)
# CDK6/CYCLIND3 = target: T42, CDK6/CYCLIND3 (Homo sapiens, UniProt Q00534); experiment: Millipore kinase panel; format: biochemical; settings: read-out: % Control
# T42 construct: purchased Millipore KinaseProfiler (kinases); Cerep (receptors and ion channels)
# T26 sequence (P06239 whole entry): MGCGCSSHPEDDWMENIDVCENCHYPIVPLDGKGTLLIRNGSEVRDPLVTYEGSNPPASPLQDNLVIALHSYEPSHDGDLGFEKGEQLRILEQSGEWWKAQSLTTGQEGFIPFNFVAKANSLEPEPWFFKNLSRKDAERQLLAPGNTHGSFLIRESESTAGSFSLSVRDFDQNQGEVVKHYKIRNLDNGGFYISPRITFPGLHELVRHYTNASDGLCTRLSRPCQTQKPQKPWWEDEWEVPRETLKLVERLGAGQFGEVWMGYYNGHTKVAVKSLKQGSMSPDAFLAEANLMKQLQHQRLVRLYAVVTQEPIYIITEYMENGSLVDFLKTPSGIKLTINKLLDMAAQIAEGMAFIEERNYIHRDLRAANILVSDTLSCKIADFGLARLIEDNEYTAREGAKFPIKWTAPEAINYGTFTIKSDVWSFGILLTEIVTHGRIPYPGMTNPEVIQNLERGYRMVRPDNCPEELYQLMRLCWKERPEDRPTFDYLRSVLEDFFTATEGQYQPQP
# T33 sequence (Q13464 whole entry): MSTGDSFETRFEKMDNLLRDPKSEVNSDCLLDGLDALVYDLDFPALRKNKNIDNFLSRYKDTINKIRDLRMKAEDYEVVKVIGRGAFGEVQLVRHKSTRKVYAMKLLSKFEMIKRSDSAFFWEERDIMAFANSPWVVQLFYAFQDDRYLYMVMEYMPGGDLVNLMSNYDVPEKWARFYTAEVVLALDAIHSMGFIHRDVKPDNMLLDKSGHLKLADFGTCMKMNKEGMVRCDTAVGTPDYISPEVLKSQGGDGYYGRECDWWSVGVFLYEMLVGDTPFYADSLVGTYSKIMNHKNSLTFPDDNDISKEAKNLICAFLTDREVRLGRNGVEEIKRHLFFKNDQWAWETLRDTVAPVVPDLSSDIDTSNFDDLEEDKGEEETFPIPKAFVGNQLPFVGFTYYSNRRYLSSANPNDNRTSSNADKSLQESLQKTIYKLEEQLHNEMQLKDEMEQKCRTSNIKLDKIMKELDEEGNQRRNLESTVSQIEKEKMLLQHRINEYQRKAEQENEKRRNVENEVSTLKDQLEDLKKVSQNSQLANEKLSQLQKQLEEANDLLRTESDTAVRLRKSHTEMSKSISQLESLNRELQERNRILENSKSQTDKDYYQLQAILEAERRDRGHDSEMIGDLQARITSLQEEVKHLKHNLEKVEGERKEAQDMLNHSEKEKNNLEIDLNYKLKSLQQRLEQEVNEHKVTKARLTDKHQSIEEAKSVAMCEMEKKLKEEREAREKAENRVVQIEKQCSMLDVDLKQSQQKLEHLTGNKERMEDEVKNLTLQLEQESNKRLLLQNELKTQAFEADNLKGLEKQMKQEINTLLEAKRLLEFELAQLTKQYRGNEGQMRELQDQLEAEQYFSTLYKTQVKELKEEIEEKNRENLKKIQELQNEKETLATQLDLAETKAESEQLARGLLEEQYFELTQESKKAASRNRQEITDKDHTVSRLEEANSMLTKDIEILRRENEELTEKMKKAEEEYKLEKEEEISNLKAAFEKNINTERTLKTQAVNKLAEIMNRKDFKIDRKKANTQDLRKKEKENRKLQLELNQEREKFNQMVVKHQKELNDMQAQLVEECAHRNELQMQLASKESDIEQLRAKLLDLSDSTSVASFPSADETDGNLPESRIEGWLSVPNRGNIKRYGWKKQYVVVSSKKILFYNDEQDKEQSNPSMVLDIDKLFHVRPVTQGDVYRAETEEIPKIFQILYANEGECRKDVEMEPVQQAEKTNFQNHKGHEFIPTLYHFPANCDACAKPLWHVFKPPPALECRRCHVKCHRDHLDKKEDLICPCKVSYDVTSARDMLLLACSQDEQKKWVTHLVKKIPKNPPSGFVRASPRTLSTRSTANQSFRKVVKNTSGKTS
# T36 sequence (O75582 whole entry): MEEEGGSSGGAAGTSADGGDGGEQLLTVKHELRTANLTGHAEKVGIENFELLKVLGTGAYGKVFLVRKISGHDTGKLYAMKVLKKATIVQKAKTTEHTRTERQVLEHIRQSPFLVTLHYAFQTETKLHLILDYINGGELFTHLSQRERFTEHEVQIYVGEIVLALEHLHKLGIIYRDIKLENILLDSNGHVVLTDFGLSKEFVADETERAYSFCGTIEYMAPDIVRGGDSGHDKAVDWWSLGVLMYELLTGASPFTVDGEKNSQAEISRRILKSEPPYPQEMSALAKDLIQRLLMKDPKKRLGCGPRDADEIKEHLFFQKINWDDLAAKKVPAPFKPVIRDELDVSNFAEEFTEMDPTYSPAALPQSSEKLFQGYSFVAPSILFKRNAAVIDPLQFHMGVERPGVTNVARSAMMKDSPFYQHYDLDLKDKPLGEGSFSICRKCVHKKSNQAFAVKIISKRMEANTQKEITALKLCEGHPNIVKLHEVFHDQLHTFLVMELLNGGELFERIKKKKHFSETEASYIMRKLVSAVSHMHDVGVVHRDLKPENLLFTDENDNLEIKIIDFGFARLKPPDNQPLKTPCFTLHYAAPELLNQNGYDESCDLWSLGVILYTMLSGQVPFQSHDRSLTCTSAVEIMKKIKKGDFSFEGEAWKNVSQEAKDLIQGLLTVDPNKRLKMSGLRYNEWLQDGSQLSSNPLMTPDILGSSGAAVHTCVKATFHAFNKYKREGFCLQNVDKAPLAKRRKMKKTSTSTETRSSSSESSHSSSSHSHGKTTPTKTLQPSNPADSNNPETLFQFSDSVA
# T32 sequence (Q15759 whole entry): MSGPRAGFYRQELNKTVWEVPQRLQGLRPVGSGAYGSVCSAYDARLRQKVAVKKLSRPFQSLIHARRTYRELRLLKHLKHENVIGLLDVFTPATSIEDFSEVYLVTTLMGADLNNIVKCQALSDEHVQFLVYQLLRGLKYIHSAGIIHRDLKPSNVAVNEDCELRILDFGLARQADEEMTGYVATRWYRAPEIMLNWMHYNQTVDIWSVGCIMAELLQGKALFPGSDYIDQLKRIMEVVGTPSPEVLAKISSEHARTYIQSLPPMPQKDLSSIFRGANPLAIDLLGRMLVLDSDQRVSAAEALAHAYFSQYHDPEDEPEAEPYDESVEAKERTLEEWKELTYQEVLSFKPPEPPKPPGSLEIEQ
# T25 sequence (P49760 whole entry): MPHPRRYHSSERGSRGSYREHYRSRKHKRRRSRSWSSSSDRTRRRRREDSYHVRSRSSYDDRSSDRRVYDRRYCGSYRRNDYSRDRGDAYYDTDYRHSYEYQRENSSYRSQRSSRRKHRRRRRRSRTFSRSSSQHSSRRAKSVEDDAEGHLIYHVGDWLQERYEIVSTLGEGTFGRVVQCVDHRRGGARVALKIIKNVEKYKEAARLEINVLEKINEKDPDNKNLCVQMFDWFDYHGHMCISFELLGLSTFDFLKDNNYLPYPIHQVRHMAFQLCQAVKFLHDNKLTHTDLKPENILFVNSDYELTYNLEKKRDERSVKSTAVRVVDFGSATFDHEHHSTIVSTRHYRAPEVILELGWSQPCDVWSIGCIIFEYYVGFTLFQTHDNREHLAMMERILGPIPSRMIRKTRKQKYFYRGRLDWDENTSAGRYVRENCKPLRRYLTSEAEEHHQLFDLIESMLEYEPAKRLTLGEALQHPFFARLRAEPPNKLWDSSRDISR
# T35 sequence (P42681 whole entry): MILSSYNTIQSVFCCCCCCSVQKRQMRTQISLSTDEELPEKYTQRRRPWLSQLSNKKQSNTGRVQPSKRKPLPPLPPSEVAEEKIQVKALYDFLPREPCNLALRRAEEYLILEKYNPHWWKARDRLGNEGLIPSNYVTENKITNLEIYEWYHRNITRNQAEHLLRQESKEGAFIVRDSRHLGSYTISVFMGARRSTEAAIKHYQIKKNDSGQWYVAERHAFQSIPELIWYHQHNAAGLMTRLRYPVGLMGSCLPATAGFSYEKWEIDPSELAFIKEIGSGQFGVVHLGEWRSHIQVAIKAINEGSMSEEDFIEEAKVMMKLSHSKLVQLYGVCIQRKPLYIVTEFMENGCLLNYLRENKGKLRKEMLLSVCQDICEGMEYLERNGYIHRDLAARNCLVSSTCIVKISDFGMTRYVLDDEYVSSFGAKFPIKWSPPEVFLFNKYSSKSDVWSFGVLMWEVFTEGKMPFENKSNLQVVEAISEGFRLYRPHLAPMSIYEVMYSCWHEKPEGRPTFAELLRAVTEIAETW
# T38 sequence (Q02750 whole entry): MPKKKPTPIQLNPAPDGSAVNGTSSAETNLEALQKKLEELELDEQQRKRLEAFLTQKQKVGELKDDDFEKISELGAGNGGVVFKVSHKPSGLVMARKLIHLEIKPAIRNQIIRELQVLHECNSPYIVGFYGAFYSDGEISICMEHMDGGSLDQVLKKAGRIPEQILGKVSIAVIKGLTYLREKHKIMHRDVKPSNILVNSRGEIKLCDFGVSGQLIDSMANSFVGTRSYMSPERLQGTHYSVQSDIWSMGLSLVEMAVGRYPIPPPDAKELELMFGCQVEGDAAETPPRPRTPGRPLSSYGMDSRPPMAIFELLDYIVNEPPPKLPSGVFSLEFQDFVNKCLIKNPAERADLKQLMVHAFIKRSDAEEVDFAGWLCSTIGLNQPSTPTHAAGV
# T31 sequence (P0DMS8 whole entry): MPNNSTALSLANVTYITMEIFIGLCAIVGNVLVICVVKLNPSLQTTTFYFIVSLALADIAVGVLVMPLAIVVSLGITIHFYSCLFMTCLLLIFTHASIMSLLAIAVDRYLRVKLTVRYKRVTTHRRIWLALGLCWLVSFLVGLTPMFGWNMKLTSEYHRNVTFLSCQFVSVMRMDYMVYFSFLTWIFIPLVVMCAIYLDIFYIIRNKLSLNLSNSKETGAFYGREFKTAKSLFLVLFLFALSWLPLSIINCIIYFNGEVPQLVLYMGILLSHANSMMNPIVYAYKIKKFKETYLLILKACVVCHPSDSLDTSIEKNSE
smiles,measurement,setting,value
"Cn1cc(-c2ccc(-c3cncc(Cl)c3N3CCC4(CCNC4=O)CC3)cc2)cn1 [Compound 74, 8-(3-Chloro-5-(4-(1-methyl-1H-pyrazol-4-yl)phenyl)pyridin-4-yl)-2,8-diazaspiro[4.5]decan-1-one]",remaining activity at 1 µM,MLCK,1%
same,remaining activity at 1 µM,SRPK2,-10%
same,remaining activity at 1 µM,RSK4,-17%
same,remaining activity at 1 µM,EPHA8,-7%
same,inhibition at 10 µM,H2 (h),-2%
same,remaining activity at 1 µM,WNK2,0%
same,remaining activity at 1 µM,RSE,-17%
same,remaining activity at 1 µM,EGFR,10%
same,remaining activity at 1 µM,FER,11%
same,remaining activity at 1 µM,SAPK2A,1%
same,remaining activity at 1 µM,DMPK,9%
same,remaining activity at 1 µM,ALK,-22%
same,remaining activity at 1 µM,AXL,-18%
same,remaining activity at 1 µM,CDK2/CYCLINA,-8%
same,remaining activity at 1 µM,PDK1,-12%
same,remaining activity at 1 µM,KDR,10%
same,remaining activity at 1 µM,PLK3,0%
same,remaining activity at 1 µM,FES,-14%
same,remaining activity at 1 µM,ARK5,-2%
same,remaining activity at 1 µM,MST3,-7%
same,remaining activity at 1 µM,FGFR3,-4%
same,inhibition at 10 µM,A2A (h),22%
same,inhibition at 10 µM,5-HT6 (h),3%
same,% Inhibition of Control Specific Binding,Na+ channel (site 2),29%
same,remaining activity at 1 µM,PAK2,-7%
same,remaining activity at 1 µM,CLK2,-19%
same,IC50,LCK; ATP at Km,> 10 µM
same,remaining activity at 1 µM,LCK; read-out: % Control,10%
same,remaining activity at 1 µM,SGK,-4%
same,remaining activity at 1 µM,HIPK1,10%
same,remaining activity at 1 µM,AURKB,-8%
same,% Control,MKK4,13%
same,remaining activity at 1 µM,PRK2,0%
same,inhibition at 10 µM,A3 (h),17%
same,remaining activity at 1 µM,SAPK2B,0%
same,remaining activity at 1 µM,ROCK-I,-1%
same,remaining activity at 1 µM,LIMK1,0%
same,remaining activity at 1 µM,TXK,-2%
same,remaining activity at 1 µM,MSK1,5%
same,inhibition at 10 µM,CXCR2 (IL-8B) (h),-6%
same,remaining activity at 1 µM,MEK1,10%
same,remaining activity at 1 µM,EPHB4,10%
same,remaining activity at 1 µM,GRK6,-1%
same,remaining activity at 1 µM,PKD2,7%
same,remaining activity at 1 µM,CDK6/CYCLIND3,-3%
